The test system of data set [1] is Peripheral blood mononuclear cells (PBMC). Description: Cytokine Induction in Human Cells (in vitro human blood cell system, IFN and TNF secreted into culture media). Type of data set: cell-based. More on the design: key to Lowest Effective Concentration (μM) Tumor Necrosis Factor / Lowest Effective Concentration (μM) Interferon: *: no induction was seen at any of the tested concentrations. Conditions: 18 to 24 hours, tested 30-0.014 μM. In a few lines:
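Human donor PBMC (2×10^6 cells/mL, RPMI complete) incubated 18–24 h at 37 °C, 5% CO2 with compound, 3-fold dilutions 30–0.014 μM, ≤1% DMSO. IFN-α measured by ELISA, TNF-α by ELISA or IGEN immunoassay in supernatants (pg/mL). Value is lowest concentration inducing each cytokine.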

Setting [2] is: lowest concentration found to induce interferon (α), ELISA.
The mark [3] stands for this setting: lowest concentration found to induce tumor necrosis factor (α), ELISA or IGEN assay.
[4] abbreviates: Homo sapiens, PBMC, lowest concentration found to induce interferon (α), ELISA, read-out: Lowest Effective Concentration (μM) Interferon.
Setting [5] is: Homo sapiens, PBMC, lowest concentration found to induce tumor necrosis factor (α), ELISA or IGEN assay, read-out: Lowest Effective Concentration (μM) Tumor Necrosis Factor.

Structures can show the parent of a compound that is named as a salt. Where two headings read alike, the source gives them in different places.

Consider `Nc1nc2ccccc2c2c1nc(C1CCOC1)n2CCOc1ccccc1` (stereo not drawn) [Example 139, 1-(2-Phenoxyethyl)-2-tetrahydrofuran-3-yl-1H-imidazo[4,5-c]quinolin-4-amine], for which the melting point (commonly the temperature, or range, at which the solid turns liquid) lay in the range of 235.9 to 236.3 °C. Besides, the “Lowest Effective Concentration (μM) Interferon” value in data set [1] (setting [2]) is on record as “*”. Further, the “Lowest Effective Concentration (μM) Tumor Necrosis Factor” value in data set [1] (setting [3]) was “*”.

In turn, `Cc1nc2c(N)nc3ccccc3c2n1CCCCOCC#Cc1ccccc1` [Example 149, 2-Methyl-1-{4-[(3-phenylprop-2-ynyl)oxy]butyl}-1H-imidazo[4,5-c]quinolin-4-amine] came in with a melting point of 109.2 to 110 °C. The minimal effective concentration in data set [1] (setting [4]) stood at 0.041 µM. Also, in data set [1] (setting [5]), the minimal effective concentration is 0.37 µM.

Molecule `Nc1nc2ccccc2c2c1nc(CCC1CCCC1)n2CCOc1ccccc1` [Example 138, 2-(2-Cyclopentylethyl)-1-(2-phenoxyethyl)-1H-imidazo[4,5-c]quinolin-4-amine] gave a melting point of 165 °C. Further, in data set [1] (setting [4]), the minimal effective concentration was determined as 1.11 µM. Besides, in data set [1] (setting [3]), the “Lowest Effective Concentration (μM) Tumor Necrosis Factor” value is recorded as “*”.

As to `CCCCCCCCc1nc2c(N)nc3ccccc3c2n1CCOCC#Cc1ccccc1` [Example 116, 2-Octyl-1-{2-[(3-phenylprop-2-ynyl)oxy]ethyl}-1H-imidazo[4,5-c]quinolin-4-amine], the melting point was in the range of 138 to 138.7 °C. For the same molecule, the “Lowest Effective Concentration (μM) Interferon” value in data set [1] (setting [2]) was “*”. In data set [1] (setting [3]), the “Lowest Effective Concentration (μM) Tumor Necrosis Factor” value was “*”.

In turn, `CN(C)c1ccc(CCCOCCn2cnc3c(N)nc4ccccc4c32)cc1` (as salt: trifluoroacetate) [Example 114, 1-(2-{3-[4-(Dimethylamino)phenyl]propoxy}ethyl)-1H-imidazo[4,5-c]quinolin-4-amine] registered a melting point of 137 to 140 °C.

`Cc1nc2c(N)nc3ccccc3c2n1CCCCOCCCc1ccccc1` [Example 150, 2-Methyl-1 [4-(3-phenylpropoxy)butyl]-1H-imidazo[4,5-c]quinolin-4-amine] displayed a melting point of 105.1 to 106 °C. Also, the minimal effective concentration in data set [1] (setting [4]) stood at 0.37 µM. The minimal effective concentration in data set [1] (setting [5]) worked out at 1.11 µM.

For the molecule `COc1ccc(Cc2nc3c(N)nc4ccccc4c3n2CCOc2ccccc2)cc1` [Example 134, 2-(4-Methoxybenzyl)-1-(2-phenoxyethyl)-1H-imidazo[4,5-c]quinolin-4-amine], the melting point is 201 to 203.6 °C. In addition, the “Lowest Effective Concentration (μM) Interferon” value in data set [1] (setting [2]) is “*”. Moreover, the “Lowest Effective Concentration (μM) Tumor Necrosis Factor” value in data set [1] (setting [3]) was “*”.

The molecule `Nc1nc2ccccc2c2c1ncn2CCOCCCc1ccc(C(=O)O)cc1` (as salt: trifluoroacetate) [Example 14, 4-{3-[2-(4-Amino-1H-imidazo[4,5-c]quinolin-1-yl)ethoxy]propyl}benzoic acid trifluoroacetate] displayed a melting point of 235 to 237 °C.

In turn, `Nc1nc2ccccc2c2c1ncn2CCOCCCc1ccc(-n2cccc2)cc1` (as salt: trifluoroacetate) [Example 11, 1-(2-{3-[4-(1H-1-Pyrrolyl)phenyl]propoxy}ethyl)-1H-imidazo[4,5-c]quinolin-4-amine trifluoroacetate] returned a melting point of 179 to 181 °C.

On to `COc1ccc(CCCOCCn2cnc3c(N)nc4ccccc4c32)cc1` [Example 5, 1-{2-[3-(4-Methoxyphenyl)propoxy]ethyl}-1H-imidazo[4,5-c]quinolin-4-amine], for which the melting point was 116 to 118 °C. Besides, the minimal effective concentration in data set [1] (setting [4]) is 0.12 µM. Moreover, the minimal effective concentration in data set [1] (setting [5]) stood at 1.11 µM.

`C#CCOCCn1cnc2c(N)nc3ccccc3c21` [Example 1, 1-[2-(2-Propynyloxy)ethyl]-1H-imidazo[4,5-c]quinolin-4-amine] registered a melting point of 225 to 227 °C. Moreover, the minimal effective concentration in data set [1] (setting [4]) was found to be 0.12 µM. Also, in data set [1] (setting [5]), the minimal effective concentration came to 1.11 µM.

The molecule `CC(C)Cc1nc2c(N)nc3ccccc3c2n1CCOc1ccccc1` [Example 130, 2-Isobutyl-1-(2-phenoxyethyl)-1H-imidazo[4,5-c]quinolin-4-amine] registered a melting point of 176.6 to 177.8 °C. Besides, in data set [1] (setting [4]), the minimal effective concentration amounted to 3.33 µM. Further, in data set [1] (setting [5]), the minimal effective concentration amounted to 3.33 µM.

On to `Nc1nc2ccccc2c2c1nc(-c1ccccc1)n2CCOc1ccccc1` [Example 140, 1-(2-Phenoxyethyl)-2-phenyl-1H-imidazo[4,5-c]quinolin-4-amine], for which the melting point lay in the range of 182.5 to 184.6 °C. In addition, the “Lowest Effective Concentration (μM) Interferon” value in data set [1] (setting [2]) is “*”. In addition, the “Lowest Effective Concentration (μM) Tumor Necrosis Factor” value in data set [1] (setting [3]) was “*”.

The molecule `CCOCc1nc2c(N)nc3ccccc3c2n1CCOCc1ccccc1` [Example 125, 1-[2-(Benzyloxy)ethyl]-2-(ethoxymethyl)-1H-imidazo[4,5-c]quinolin-4-amine] registered a melting point of 144.5 to 146 °C. In addition, in data set [1] (setting [4]), the minimal effective concentration was found to be 0.01 µM. In data set [1] (setting [5]), the minimal effective concentration stood at 0.37 µM.

The molecule `CCOCc1nc2c(N)nc3ccccc3c2n1CCOCCCc1ccccc1` (as salt: hydrochloride) [Example 16, 2-(Ethoxymethyl)-1-[2-(3-phenylpropoxy)ethyl]-1H-imidazo[4,5-c]quinolin-4-amine Hydrochloride] returned a melting point of 128 to 134 °C.

For `Cc1nc2c(N)nc3ccccc3c2n1CCCOCCCc1ccccc1` [Example 148, 2-Methyl-1-[3-(3-phenylpropoxy)propyl]-1H-imidazo[4,5-c]quinolin-4-amine], the melting point was in the range of 145 to 146.1 °C. Also, the minimal effective concentration in data set [1] (setting [4]) is 1.11 µM. Besides, in data set [1] (setting [5]), the minimal effective concentration is 1.11 µM.

`CCCCc1nc2c(N)nc3ccccc3c2n1CCOc1ccccc1` [Example 132, 2-Butyl-1-(2-phenoxyethyl)-1H-imidazo[4,5-c]quinolin-4-amine] gave a melting point of 168.3 to 169.5 °C. Moreover, in data set [1] (setting [4]), the minimal effective concentration stood at 0.01 µM. In addition, in data set [1] (setting [5]), the minimal effective concentration is 3.33 µM.

As to `COCCc1nc2c(N)nc3ccccc3c2n1CCOc1ccccc1` [Example 129, 2-(2-Methoxyethyl)-1-(2-phenoxyethyl)-1H-imidazo[4,5-c]quinolin-4-amine], the melting point was 171 to 174 °C. For the same molecule, the minimal effective concentration in data set [1] (setting [4]) is 0.01 µM. Also, in data set [1] (setting [5]), the minimal effective concentration was 0.04 µM.

For the molecule `Nc1nc2ccccc2c2c1ncn2CCOC/C=C/c1ccccc1` [Example 115, 1-(2-{[(2E)-3-Phenylprop-2-enyl]oxy}ethyl)-1H-imidazo[4,5-c]quinolin-4-amine], the melting point was in the range of 183.7 to 184.3 °C. Further, in data set [1] (setting [4]), the minimal effective concentration is 0.12 µM. Further, the minimal effective concentration in data set [1] (setting [5]) was found to be 1.11 µM.

Turning to `COCCc1nc2c(N)nc3ccccc3c2n1CCOCCCc1ccccc1` [Example 121, 2-(2-Methoxyethyl)-1-[2-(3-phenylpropoxy)ethyl]-1H-imidazo[4,5-c]quinolin-4-amine], the melting point was in the range of 103.8 to 104.5 °C. In addition, in data set [1] (setting [4]), the minimal effective concentration turned out to be 0.01 µM. For the same molecule, the minimal effective concentration in data set [1] (setting [5]) turned out to be 0.04 µM.

As for `Cc1cccc(C)c1C#CCOCCn1cnc2c(N)nc3ccccc3c21` [Example 8, 1-(2-{[3-(2,6-Dimethylphenyl)-2-propynyl]oxy}ethyl)-1H-imidazo[4,5-c]quinolin-4-amine], the melting point was in the range of 200 to 201 °C. For the same molecule, in data set [1] (setting [4]), the minimal effective concentration was 1.11 µM. Besides, the minimal effective concentration in data set [1] (setting [5]) stood at 10 µM.

In turn, `Cc1ccc(C#CCOCCn2cnc3c(N)nc4ccccc4c32)cc1C` [Example 23, 1-(2-{[3-(3,4-Dimethylphenyl)-2-propynyl]oxy}ethyl]-1H-imidazo[4,5-c]quinolin-4-amine] had a melting point of 214 to 216 °C. Moreover, the minimal effective concentration in data set [1] (setting [4]) was determined as 1.11 µM. Besides, the “Lowest Effective Concentration (μM) Tumor Necrosis Factor” value in data set [1] (setting [3]) is “*”.

Consider `CCCCCCCCc1nc2c(N)nc3ccccc3c2n1CCOCCCc1ccccc1` [Example 117, 2-Octyl-1-[2-(3-phenylpropoxy)ethyl]-1H-imidazo[4,5-c]quinolin-4-amine], for which the melting point is 103.8 to 104.5 °C. Moreover, the “Lowest Effective Concentration (μM) Interferon” value in data set [1] (setting [2]) was “*”. Also, the “Lowest Effective Concentration (μM) Tumor Necrosis Factor” value in data set [1] (setting [3]) is “*”.

Take `CCC(COCc1ccc(C#N)cc1)n1cnc2c(N)nc3ccccc3c21` (stereo not drawn) [Example 141, 4-{[2-(4-Amino-1H-imidazo[4,5-c]quinolin-1-yl)butoxy]methyl}benzonitrile]: the melting point lay within 160 to 161 °C. Moreover, in data set [1] (lowest concentration found to induce interferon (α), ELISA, read-out: Lowest Effective Concentration (μM) Interferon), the minimal effective concentration turned out to be 0.12 µM. For the same molecule, the minimal effective concentration in data set [1] (lowest concentration found to induce tumor necrosis factor (α), ELISA or IGEN assay, read-out: Lowest Effective Concentration (μM) Tumor Necrosis Factor) is reported as 0.12 µM.

The molecule `Nc1nc2ccccc2c2c1nc(CC1CC1)n2CCOc1ccccc1` [Example 137, 2-(Cyclopropylmethyl)-1-(2-phenoxyethyl)-1H-imidazo[4,5-c]quinolin-4-amine] had a melting point of 191.7 to 192.6 °C.

Regarding `CC(C)c1ccccc1C#CCOCCn1cnc2c(N)nc3ccccc3c21` (as salt: hydrochloride) [Example 7, 1-(2-{[3-(2-Isopropylphenyl)-2-propynyl]oxy}ethyl)-1H-imidazo[4,5-c]quinolin-4-amine Hydrochloride], the melting point is 239 to 241 °C.

Values taken from patent US6989389B2, “Aryl ether substituted imidazoquinolines” (3M Innovative Properties Co., priority 2000, dated 2006).
